Source: the CheMixHub viscosity set

Test: xn = mol fraction of the nth substance listed

Cc1ccccc1C(=O)O + O=C1CCCCCN1
101 kPa, x2 = 0.67
Details | viscosity [mPa·s]
303.2 K | 108.3
313.1 K | 58.33
323.1 K | 34.26

ClC(Cl)(Cl)Cl + CC(C)=O
viscosity [mPa·s], 101 kPa
Details | x1 = 0.0993 | x1 = 0.2003 | x1 = 0.2968 | x1 = 0.4207 | x1 = 0.5193 | x1 = 0.61 | x1 = 0.7052 | x1 = 0.8049 | x1 = 0.9143
293.15 K | 0.3621 | 0.4068 | 0.4555 | 0.5227 | 0.5813 | 0.6398 | 0.7073 | 0.7845 | 0.8843
298.15 K | 0.3447 | 0.3859 | 0.4311 | 0.4933 | 0.5473 | 0.6015 | 0.6632 | 0.7338 | 0.8251
303.15 K | 0.3284 | 0.3665 | 0.409 | 0.466 | 0.5196 | 0.5667 | 0.6234 | 0.6889 | 0.7757
313.15 K | 0.3001 | 0.3321 | 0.3699 | 0.4185 | 0.4649 | 0.506 | 0.5538 | 0.6106 | 0.6817

CCN(CC)CC + C1CCCCC1
303.15 K, 101 kPa
Details | viscosity [mPa·s]
x1 = 0.01021 | 0.8057
x1 = 0.01915 | 0.7913
x1 = 0.0299 | 0.7725
x1 = 0.04221 | 0.7556
x1 = 0.04976 | 0.7402
x1 = 0.0618 | 0.7264
x1 = 0.07115 | 0.7134
x1 = 0.07987 | 0.7009
x1 = 0.08947 | 0.6879
x1 = 0.09947 | 0.6772

ClC(Cl)(Cl)Cl + CC#N
viscosity [mPa·s], 101 kPa
Details | 293.15 K | 298.15 K | 303.15 K | 313.15 K | 323.15 K
x2 = 0.007 | 0.954 | 0.883 | 0.813 | 0.74 | 0.638
x2 = 0.026 | 0.948 | 0.855 | 0.798 | 0.724 | 0.612
x2 = 0.084 | 0.906 | 0.862 | 0.831 | 0.736 | 0.659

ClC(Cl)(Cl)Cl + c1ccncc1
298.15 K, 101 kPa
Details | viscosity [mPa·s]
x1 = 0.09 | 0.9206
x1 = 0.1492 | 0.9404
x1 = 0.2381 | 0.9623
x1 = 0.293 | 0.9729
x1 = 0.37 | 0.9819
x1 = 0.4337 | 0.9847
x1 = 0.4561 | 0.9841
x1 = 0.4972 | 0.9842
x1 = 0.6006 | 0.9751
x1 = 0.738 | 0.9538
x1 = 0.7863 | 0.943
x1 = 0.8636 | 0.9286
x1 = 0.9447 | 0.912

FCCl + FC(F)(Cl)C(F)(F)Cl
Details | viscosity [mPa·s]
312.21 K, 101.13 kPa, x1 = 0.754 | 0.2322

O=C1CCCCCN1 + O=C(O)c1ccccc1
101 kPa, x1 = 0.5
Details | viscosity [mPa·s]
303.2 K | 104.2
313.1 K | 48.15
323.1 K | 27.31

ClC(Cl)(Cl)Cl + Cc1ccc(C)cc1
298.15 K, 101 kPa
Details | viscosity [mPa·s]
x2 = 0.1 | 0.87
x2 = 0.2 | 0.8339
x2 = 0.3 | 0.7997
x2 = 0.4 | 0.7675
x2 = 0.5 | 0.7372
x2 = 0.6 | 0.7087
x2 = 0.7 | 0.6816
x2 = 0.8 | 0.6556
x2 = 0.9 | 0.6301

ClC(Cl)(Cl)Cl + CCCC(=O)OCC
101.33 kPa
Details | viscosity [mPa·s]
303.15 K, x1 = 0.061 | 0.606
303.15 K, x1 = 0.1443 | 0.621
303.15 K, x1 = 0.2812 | 0.648
303.15 K, x1 = 0.3929 | 0.672
303.15 K, x1 = 0.5226 | 0.699
303.15 K, x1 = 0.5625 | 0.708
303.15 K, x1 = 0.6324 | 0.726
303.15 K, x1 = 0.7331 | 0.748
303.15 K, x1 = 0.8278 | 0.778
303.15 K, x1 = 0.8866 | 0.798
303.15 K, x1 = 0.9455 | 0.819
313.15 K, x1 = 0.2056 | 0.586
313.15 K, x1 = 0.4083 | 0.615
313.15 K, x1 = 0.5058 | 0.631
313.15 K, x1 = 0.6059 | 0.647
313.15 K, x1 = 0.799 | 0.69

ClC(Cl)(Cl)Cl + O=S1(=O)CCCC1
viscosity [mPa·s], 101.33 kPa
Details | 303.15 K | 313.15 K | 323.15 K
x2 = 0.066 | 1.002 | 0.8675 | 0.7607
x2 = 0.1374 | 1.243 | 1.062 | 0.9177
x2 = 0.2048 | 1.532 | 1.286 | 1.098
x2 = 0.3138 | 2.043 | 1.691 | 1.425
x2 = 0.3838 | 2.392 | 1.974 | 1.658
x2 = 0.4188 | 2.589 | 2.133 | 1.79
x2 = 0.4879 | 3.046 | 2.498 | 2.082
x2 = 0.5667 | 3.682 | 2.982 | 2.47
x2 = 0.6334 | 4.338 | 3.481 | 2.855
x2 = 0.705 | 5.162 | 4.107 | 3.348
x2 = 0.7743 | 6.124 | 4.817 | 3.9
x2 = 0.8473 | 7.286 | 5.711 | 4.571
x2 = 0.8955 | 8.168 | 6.367 | 5.053

ClC(Cl)(Cl)Cl + CC(C)CO
viscosity [mPa·s], 101 kPa
Details | x2 = 0.0126 | x2 = 0.0461 | x2 = 0.0853 | x2 = 0.2088 | x2 = 0.2911 | x2 = 0.411 | x2 = 0.5341 | x2 = 0.7116 | x2 = 0.8407
298.15 K | 0.888 | 0.896 | 0.914 | 0.995 | 1.079 | 1.251 | 1.521 | 2.076 | 2.631
308.15 K | 0.774 | 0.774 | 0.791 | 0.845 | 0.909 | 1.023 | 1.206 | 1.581 | 1.942
318.15 K | 0.679 | 0.679 | 0.695 | 0.726 | 0.77 | 0.851 | 0.978 | 1.235 | 1.482

CCN(CC)CC + CCCCN
viscosity [mPa·s], 101.33 kPa
Details | x1 = 0.1038 | x1 = 0.2009 | x1 = 0.4065 | x1 = 0.5021 | x1 = 0.5996 | x1 = 0.801 | x1 = 0.8898
303.15 K | 0.4186 | 0.4019 | 0.3761 | 0.3681 | 0.3611 | 0.357 | 0.3569
313.15 K | 0.3692 | 0.3555 | 0.3345 | 0.329 | 0.3244 | 0.3216 | 0.3228

CCCC(C)=O + CCCCN
303.15 K, 101.33 kPa
Details | viscosity [mPa·s]
x2 = 0.1 | 0.608
x2 = 0.1974 | 0.752
x2 = 0.3754 | 0.936
x2 = 0.5189 | 1.023
x2 = 0.6418 | 1.061
x2 = 0.7158 | 0.949
x2 = 0.8252 | 0.825
x2 = 0.8978 | 0.709
